Measurements reported in US5760017A, “Cyclodextrin derivatives usable in particular for solubilizing hydrophobic chemical compounds such as medicaments and their preparation process” (priority 1993, dated 1998).
≈ marks a conversion by molar mass, not a printed value. Read-outs that look alike come from different tables or passages of the source.

Key:
[1] = Ionization potential measurements (pK) by potentiometry; assay type: physicochemical
[2] = Solubility in water under physiological conditions; conditions: sodium phosphate buffer, pH 7.4, aqueous buffer
[3] = Solubilization of prednisolone in water by the cyclodextrin derivative; assay type: physicochemical
Procedure: 10 μmole of heptakis-6-ethanolamino-6-deoxycyclomaltoheptaose (in hydrochloride form) prepared in example 1, are dissolved in 1 ml of pure water (apyrogenic water for injection) and addition takes place of 5 μmole of prednisolone in the form of a 50 mmole/l concentrated solution in acetone. The acetone is eliminated by nitrogen passage for 10 minutes and the solution is lyophilized.
The residual solid, which contains 10 μmole of the cyclodextrin derivative and 5 μmole of prednisolone, is redissolved in the minimum of water at 25° C.

human erythrocytes = assay: Hemolytic properties on human erythrocytes; assay type: cell-based; conditions: 5 mmole/l hydrochloride solution (4 ml) with 0.4 ml human erythrocytes, pH 7.4, 30 minutes, 37° C.
Procedure: Thus, the hemolytic properties of the derivative obtained in example 1 were tested by contacting 0.4 ml of a solution of human erythrocytes and 4 ml of the 5 mmole/l hydrochloride solution, at a pH of 7.4, for 30 minutes and 37° C.

[4] = potentiometry, single pK, read-out: pK (single)
[5] = Solubility in water under physiological conditions, free base form, pH 7.40, 25° C.
[6] = Solubility in water under physiological conditions, hydrochloride form, pH 7.40, 25° C.

pKa [1, 4] | solubility [2, 5] [mM] | solubility [2, 6] [mM] | maximum prednisolone solubility reached in water in the presence of the cyclodextrin (derivative) [3] [mM] | Compound | hemolysis (in words) (human erythrocytes) | pKa ([1]; first of two pK's, read-out: pK (first of two)) | pKa ([1]; second of two pK's, read-out: pK (second of two)) | solubility [2] [mM] | maximum prednisolone solubility reached in water in the presence of the cyclodextrin (derivative) ([3]; 25° C., 10 μmole cyclodextrin derivative and 5 μmole prednisolone, lyophilized, redissolved in minimum of water (cyclodextrin derivative at 60 mmole/l for the per-substituted derivative)) [mM]
7.05 | 140 (≈ 201 mg/mL) | 350 (≈ 503 mg/mL) | 30 | OCCNC[C@H]1O[C@@H]2O[C@H]3[C@H](O)[C@@H](O)[C@@H](O[C@H]4[C@H](O)[C@@H](O)[C@@H](O[C@H]5[C@H](O)[C@@H](O)[C@@H](O[C@H]6[C@H](O)[C@@H](O)[C@@H](O[C@H]7[C@H](O)[C@@H](O)[C@@H](O[C@H]8[C@H](O)[C@@H](O)[C@@H](O[C@H]1[C@H](O)[C@H]2O)O[C@@H]8CNCCO)O[C@@H]7CNCCO)O[C@@H]6CNCCO)O[C@@H]5CNCCO)O[C@@H]4CNCCO)O[C@@H]3CNCCO [Example 2, heptakis-6-ethanolamino-6-deoxycyclomaltoheptaose] | – | – | – | – | –
7.1 | 40 (≈ 47.1 mg/mL) | 95 (≈ 112 mg/mL) | 18 | OCCNC[C@H]1O[C@@H]2O[C@H]3[C@H](O)[C@@H](O)[C@@H](O[C@H]4[C@H](O)[C@@H](O)[C@@H](O[C@H]5[C@H](O)[C@@H](O)[C@@H](O[C@H]6[C@H](O)[C@@H](O)[C@@H](O[C@H]7[C@H](O)[C@@H](O)[C@@H](O[C@H]8[C@H](O)[C@@H](O)[C@@H](O[C@H]1[C@H](O)[C@H]2O)O[C@@H]8CO)O[C@@H]7CO)O[C@@H]6CO)O[C@@H]5CO)O[C@@H]4CO)O[C@@H]3CO [Example 1, mono-6-ethanolamino-6-deoxycyclomaltoheptaose] | no hemolysis was observed | – | – | – | –
– | – | – | – | NCCNC[C@H]1O[C@@H]2O[C@H]3[C@H](O)[C@@H](O)[C@@H](O[C@H]4[C@H](O)[C@@H](O)[C@@H](O[C@H]5[C@H](O)[C@@H](O)[C@@H](O[C@H]6[C@H](O)[C@@H](O)[C@@H](O[C@H]7[C@H](O)[C@@H](O)[C@@H](O[C@H]8[C@H](O)[C@@H](O)[C@@H](O[C@H]1[C@H](O)[C@H]2O)O[C@@H]8CO)O[C@@H]7CO)O[C@@H]6CO)O[C@@H]5CO)O[C@@H]4CO)O[C@@H]3CO [reference compound] | – | 7.5 | 9.5 | 70 (≈ 82.4 mg/mL) | 12
